Patent publication US10066025B2, “Compositions and methods for detecting, treating and preventing diseases and disorders” (YALE UNIVERSITY, priority 2012, dated 2018)

Assays:
systemic blood pressure = experiment: Blood pressure and heart rate in anesthetized mice; assay type: in vivo; settings: for effect on systemic blood pressure: IV and subcutaneous administration, mice
Procedure: As in 14A, except that RP-H220 is injected; no significant changes in blood pressure (FIG. 14B). Effect of a single intravenous injection of RP-220 (squares) and RP-H220 (diamonds) on heart rate in wild type mice (FIG. 14C).
FIG. 21 depicts the results of experiments examining the effect of RP-220 injection on blood pressure. A single subcutaneous injection of RP-220 (n=3) or buffer (n=2) in anesthetized wild type mice; BP pressure is recorded continuously; RP-220 is given at time 0; each data point represents the mean pressure; the standard error of the means are shown.
Systolic and diastolic pressure and heart rate were measured in anesthetized mice as previously described (Desir et al., 2012, J Am Heart Assoc. 1:e002634).

[1] = tested on: renal ischemia/reperfusion (IR) injury; experiment: Murine model of renal ischemia/reperfusion (IR) injury, plasma creatinine; assay type: in vivo, mice; settings: for effect of ERK or PI3K/AKT inhibitor pretreatment on protective action of RP-H220 / protection against ischemic AKI (renal injury, plasma creatinine at 24 hr): WT mice; for effect of ERK or PI3K/AKT inhibitor pretreatment on protective action of RP-H220: 30 min renal IR; for severity of AKI, inhibitor alone without the peptides: ischemic WT mice; for protection against ischemic AKI (renal injury, plasma creatinine at 24 hr): renalase peptides 100 μg subcutaneous 10 to 30 min prior to 30 min renal ischemia; for renal protection (plasma creatinine): 5 mg/kg i.p., 30 min. renal IR
Procedure: Adult male renalase deficient (KO) mice (Wu et al., 2011, Kidney Int 79: 853-860) on a C57BL/6 background were subjected to renal ischemia/reperfusion (IR) as described (Kim et al., 2009, Kidney Int 75: 809-823; Kim et al., 2010, Am J Physiol Renal Physiol 299(2):F347-58). Renalase KO or wild type (WT) mice (C57BL/6 from Harlan Labs, Indianapolis, Ind.) were subjected to sham-operation or to 20 min. (moderate) or 30 min. (severe) renal ischemia and 24 hr. reperfusion. To test the renal protective effects of recombinant human renalase, mice were pretreated with saline (vehicle) or with recombinant renalase (0.5, 1.5 or 4.5 mg/kg, s.c.) 10 min. prior to 30 min. renal ischemia. It was also tested whether renalase treatment after completion of renal ischemia also provides renal protection. Separate cohorts of mice were treated with saline or with renalase (1.5 mg/kg, s.c.) 30 min. or 60 min. after reperfusion of the ischemic kidney. To test whether blocking alpha receptors would mimic the renal protective effects of human recombinant renalase administration, phentolamine (an alpha receptor antagonist, 5 mg/kg, i.p.) was given in some mice 15 min. before renal ischemia.
Plasma creatinine was measured as described with an enzymatic creatinine reagent kit according to the manufacturer's instructions (Thermo Fisher Scientific, Waltham, Mass.) (Slot, 1965, J Clin Lab Invest 17: 381-387).
After animal care and use committee approval, adult male C57BL/6 (Harlan Labs, Indianapolis, Ind.) were subjected to sham-operation or to 30 minutes of renal ischemia followed by 24 hrs of reperfusion as previously described (Lee et al., 2004, American journal of physiology. Renal physiology 286:F298-306). To test the renal protective effects of renalase peptides (RP-220, RP-H220 and RP-224), mice were pretreated with saline (vehicle) or with renalase peptides (100 μg subcutaneous) 10 to 30 minutes prior to renal ischemia.
Blood was collected from mice anesthetized with isoflurane via cardiac puncture into a heparinized syringe and was subsequently centrifuged to separate plasma. Samples were submitted to the Yale O'Brien Kidney Center for measurement of BUN and creatinine. Plasma creatinine was measured either by an enzymatic creatinine reagent kit according to the manufacturer's instructions (Thermo Fisher Scientific, Waltham, Mass.) or by HPLC. These methods of creatinine measurement largely eliminate the interferences from mouse plasma chromagens, known to occur with the Jaffe method.

HK-2 cells [2] = experiment: HK-2 cell necrosis induced with 2 mM H2O2 (LDH release); assay type: cell-based, human
Procedure: (§1) HK2 cells (human proximal tubular line) obtained from ATTC (Manassas, Va., USA) were cultured in DMEM/F12 supplemented with glutamine, 10% FBS and antibiotics, and were maintained at 37° C. in 5% CO2. Cells were exposed to cisplatin (20 μM) in the presence or absence of renalase for 24 hrs, and cell viability was assessed by the WST1 method (Roche Applied Science, Germany). Cells were then harvested in RIPA buffer (20 mM Tris-HCl pH 7.5, 150 mM NaCl, 1 mM Na2EDTA, 1 mM EGTA, 1% NP-40, 1% sodium deoxycholate, 2.5 mM sodium pyrophosphate, 1 mM β-glycerophosphate, 1 mM Na3VO4, 1 μg/ml leupeptin) supplemented with a protease and phosphatase inhibitor cocktail (Roche Applied Science, Germany). Proteins were separated by SDS-PAGE and Western blotting was carried out using the following antibodies: anti-renalase monoclonal (Desir et al., 2012, J Am Heart Assoc. 1:e002634; (Lee et al., 2013, J Am Soc Nephrol 24:445-455); anti caspase 3 (Cell Signaling Technology, MA, USA) and anti Bcl2 (Thermo Scientific, USA). Necrotic injury in HK-2 cells (ATCC, Manassas, Va.) was induced with exposure to 2 mM H2O2 for 2-8 hr and lactate dehydrogenase (LDH) released into cell culture media was measured as described using a commercial LDH assay kit (Promega, Madison, Wis.) (Lee and Emala, 2002, American journal of physiology. Renal physiology 282:F844-852).

HK-2 cells [3] = experiment: HK-2 cell cisplatin toxicity (WST-1 viability, western blot); assay type: cell-based, human; settings: 20 μM cisplatin, 24 hrs
Procedure: Cultured HK-2 cells were incubated with 20 μM cisplatin for 24 hours with and without recombinant renalase. Renalase expression was examined by Western blot and cell viability (mitochondrial integrity) was determined spectrophotometrically using WST-1, a tetrazolium salt that is cleaved, by mitochondrial dehydrogenases of metabolically active and viable cells, to formazan (420-480 nm) (Boehringer Mannheim, Germany).
as §1

[4] = tested on: PI3K/AKT and MAPK pathways; experiment: AKT and MAPK signaling and Bcl-2 expression by western blot; assay type: cell-based, human; settings: HK-2 cells in culture
Procedure: FIG. 12, comprising FIGS. 12A through 12E, is a set of images and graphs showing renalase upregulates Bcl-2, activates PI3K/AKT, ERK, p38, and inhibits JNK. Western blot analysis; P− indicates phosphorylated, activated proteins; signals normalized to GAPDH loading control, then changes in protein phosphorylation (increase=activation, decrease=inhibition) from time 0 are calculated. FIG. 12A: HK-2 and HUVEC cells incubated with renalase for 24 hrs; FIG. 12B: Western blot of time course of AKT and MAPK signaling by renalase, HK-2 cells incubated with renalase for indicated time; changes over baseline in 4c-d are significant (p<0.05); FIG. 12C: Activation of AKT(T308), AKT(5473) and ERK; FIG. 12D: Inhibition of JNK; FIG. 12E: Marked and sustained (60 min) upregulation of p38 by renalase in the presence of cisplatin, western blot for time course, REN=renalase, CP=cisplatin.
MAPK signaling by renalase and renalase peptides. Western blot analysis; ERK: Extracellular signal-Regulated Kinase 1 and 2; JNK: c-Jun N-terminal Kinases; AKT: protein kinase B; p-indicates phosphorylated, activated proteins; representative blot, n=3 (FIG. 20A). Renalase activates AKT (FIG. 20B). Western blot analysis; P− indicates phosphorylated, activated proteins Representative blot, n=3 (FIG. 20B, left panel). Signals normalized to GAPDH loading control; n=3, change over baseline statistically significant (P<0.05) from 1-60 min for ERK, p38 and AKT (T308), and at 30 min only for AKT (S473) (FIG. 20B, right panel). ERK or AKT inhibition abrogates protective effect of RP-H220 (FIG. 20C). Plasma creatinine levels from mice subjected to sham-surgery or to renal ischemia and reperfusion (IR); Renalase WT mice were subjected to sham-surgery or to 30 min renal IR. For mice subjected to renal IR, RP-H220 or vehicle (saline) was injected 10 min prior to renal ischemia. Some animals were pretreated with either the ERK inhibitor PD98059 or the PI3K/AKT inhibitor wortmanin. (N=6-8 per group). *: P<0.05 vs. vehicle-treated mice subjected to sham-surgery; #: P<0.05 vs. vehicle-treated WT mice subjected to renal IR (FIG. 20C).

Compound: RP A220: renalase peptide, SEQ ID NO: 5, IRFVSIDNAAANIESSEIG (listed as Homo sapiens)
- effect on systemic blood pressure (systemic blood pressure): no effect on BP

Compound: COC[C@H]1OC(=O)c2coc3c2[C@@]1(C)C1=C(C3=O)[C@@H]2CCC(=O)[C@@]2(C)C[C@H]1OC(C)=O [wortmanin, reference compound]
- effect of ERK or PI3K/AKT inhibitor pretreatment on protective action of RP-H220 [1]: A similar result was obtained
- severity of AKI, inhibitor alone without the peptides [1]: had no effect on the severity of AKI

Compound: RP 224: renalase peptide amino acid 224-233, SEQ ID NO: 2, CVSIDNKKRNI (listed as Homo sapiens)
- protection against ischemic AKI (renal injury, plasma creatinine at 24 hr) [1]: not protective
- protection against ischemic AKI (renal injury, plasma creatinine at 24 hr) ([1]; listed as RP-224): ineffective
- protection against 2 mM H2O2 necrosis (HK-2 cells [2]; at 2 hrs): protective at 2 hrs
- protection against 2 mM H2O2 necrosis (HK-2 cells [2]; at 4 hrs): not at 4 hrs
- cell survival / protection against cisplatin toxicity (HK-2 cells [3]): improved HK-2 cell survival
- effect on systemic blood pressure (systemic blood pressure): no effect on BP
- effect on blood pressure and heart rate (systemic blood pressure; anesthetized WT mice): no effect on blood pressure and heart rate

Compound: Cc1ccc(N(CC2=NCCN2)c2cccc(O)c2)cc1 [Phentolamine, reference compound]
- renal protection (plasma creatinine) ([1]; renalase KO mice): protected renalase KO mice
- renal protection (plasma creatinine) ([1]; renalase WT mice): produced significant renal protection

Compound: RP 128: renalase peptide, SEQ ID NO: 7, FRHRVTQINLRDDKWEVSKQ (listed as Homo sapiens)
- effect on systemic blood pressure (systemic blood pressure): no effect on BP

Compound: RP 220: renalase peptide, amino acids 220-239, SEQ ID NO: 3, CIRFVSIDNKKRNIESSEIG (listed as Homo sapiens)
- protection against ischemic AKI (renal injury, plasma creatinine at 24 hr) [1]: less effective
- protection against ischemic AKI (renal injury, plasma creatinine at 24 hr) ([1]; listed as RP-220): reduced renal injury
- necrosis induced with 2 mM H2O2 (HK-2 cells [2]; at 2 and 4 hrs): significantly reduced necrosis
- cell survival / protection against cisplatin toxicity (HK-2 cells [3]): improved HK-2 cell survival
- AKT and MAPK signaling (phosphorylation of ERK, p38, AKT) [4]: rapid and transient phosphorylation
- effect on systemic blood pressure (systemic blood pressure): marked and sustained effect on systemic blood pressure
- mean blood pressure decrease at 15 min (systemic blood pressure; WT mice, n=4, P=NS): 11.9±0.9 mmHg
- blood pressure after single intravenous injection (systemic blood pressure; anesthetized WT mice): profound fall in blood pressure
- blood pressure after subcutaneous administration (systemic blood pressure; anesthetized WT mice): decreased blood pressure
- delay in the onset of fall in blood pressure after subcutaneous administration (systemic blood pressure; anesthetized WT mice): 30 to 60 min
- duration of fall in blood pressure after intravenous injection (systemic blood pressure; anesthetized WT mice): up to two hours
- heart rate increase (systemic blood pressure; anesthetized WT mice): 5%
- onset of fall in blood pressure after intravenous injection (systemic blood pressure; anesthetized WT mice): ≤ 30 s

Compound: COc1cccc(-c2cc(=O)c3ccccc3o2)c1N [PD98059, 2′-amino 3′ methoxyflavone, reference compound]
- effect of ERK or PI3K/AKT inhibitor pretreatment on protective action of RP-H220 [1]: completely abrogated
- severity of AKI, inhibitor alone without the peptides [1]: had no effect on the severity of AKI

Compound: RP 220 scrambled: scrambled RP-220, SEQ ID NO: 6, CSKRIFKVISSIEDNNERG (listed as Homo sapiens) [reference compound]
- AKT and MAPK signaling (phosphorylation of ERK, p38, AKT) ([4]; listed as RP-Scr220): did not activate the AKT and MAPK signaling
- AKT and MAPK signaling (phosphorylation of ERK, p38, AKT) ([4]; listed as scrambled RP H220): not
- effect on systemic blood pressure (systemic blood pressure): no effect on BP
- effect on blood pressure and heart rate (systemic blood pressure; anesthetized WT mice): no effect on blood pressure and heart rate

Compound: RP 19: renalase peptide, SEQ ID NO: 8, LLRRQTSGPLYLAVWDKAED (listed as Homo sapiens)
- effect on systemic blood pressure (systemic blood pressure): no effect on BP
